Consider 21 molecules from patent publication US11066414B2, “Cot modulators and methods of use thereof” (Gilead Sciences, Inc., priority 2015, dated 2021).

Like-named read-outs stand apart in the source and are kept apart here.

In one assay the test system is TNFα. Description: Cot Monocyte TNFα Cell Based Assay.
The next assay has as its target Human Cot (Homo sapiens (Human), UniProt P41279). In words: High Throughput Cot Biochemical Assay.
Where [1] appears, read: Homo sapiens, Monocyte, read-out: EC50 TNF, LPS-stimulated human monocytes, TNFα.
Where [2] appears, read: IC50 HTRF, Cot HTRF (TR-FRET) biochemical assay.
Where [3] appears, read: Homo sapiens, Monocyte, read-out: EC50 TNF, LPS-stimulated human monocytes, TNFα TR-FRET.
[4] abbreviates: IC50 HTRF, Cot HTRF (TR-FRET KinEASE) biochemical assay, 400 μM ATP.
[5] abbreviates: read-out: EC50 TNF, LPS-stimulated human monocytes, TNFα TR-FRET.
[6] abbreviates: read-out: IC50 HTRF, Cot HTRF (TR-FRET KinEASE) biochemical assay, 400 μM ATP.
The mark [7] stands for this setting: read-out: EC50 TNF, LPS-stimulated human monocytes, TNFα.
Where [8] appears, read: read-out: IC50 HTRF, Cot HTRF (TR-FRET) biochemical assay.

Chain of Human Cot (P41279 30-397): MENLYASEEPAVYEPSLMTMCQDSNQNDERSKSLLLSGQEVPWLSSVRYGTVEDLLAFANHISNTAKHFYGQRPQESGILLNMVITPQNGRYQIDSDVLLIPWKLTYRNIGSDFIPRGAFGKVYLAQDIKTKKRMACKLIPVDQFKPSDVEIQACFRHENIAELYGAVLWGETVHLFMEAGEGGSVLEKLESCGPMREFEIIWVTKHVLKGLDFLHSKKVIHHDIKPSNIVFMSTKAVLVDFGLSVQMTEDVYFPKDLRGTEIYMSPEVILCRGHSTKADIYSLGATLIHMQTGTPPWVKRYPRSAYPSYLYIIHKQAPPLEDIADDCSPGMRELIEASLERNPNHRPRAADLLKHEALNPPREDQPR

As to `N#Cc1cnc2c(Cl)cc(N[C@H](c3cn(C4COC4)nn3)c3csc4c3CCNC4)cc2c1Nc1ccc(F)c(Cl)c1` [Example 279, (S)-8-chloro-4-((3-chloro-4-fluorophenyl)amino)-6-(((1-(oxetan-3-yl)-1H-1,2,3-triazol-4-yl)(4,5,6,7-tetrahydrothieno[2,3-c]pyridin-3-yl)methyl)amino)quinoline-3-carbonitrile], the half-maximal effective concentration (EC50) in the assay with TNFα (setting [1]) was found to be 457 nM. Moreover, half-maximal inhibition on Human Cot (setting [2]) (IC50) required 3 nM.
As for `CC(C)(C)CNc1c(C#N)cnc2c(Cl)cc(N[C@H](c3cn(C4CC4)nn3)c3cccn4nccc34)cc12` [Example 422, (S)-8-chloro-6-(((1-cyclopropyl-1H-1,2,3-triazol-4-yl)(pyrazolo[1,5-a]pyridin-4-yl)methyl)amino)-4-(neopentylamino)-quinoline-3-carbonitrile], the concentration for a half-maximal effect (EC50) in the assay with TNFα (setting [1]) is 57 nM. The molecule further had a half-maximal inhibitory concentration (IC50) on Human Cot (setting [2]) of 2 nM.
Take `CC(C)(C)CNc1c(C#N)cnc2c(Cl)cc(N[C@H](c3cn(C4(C(F)(F)F)CC4)nn3)c3cccc4[nH]c(C(F)(F)F)nc34)cc12` [Example 972, (S)-8-chloro-4-(neopentylamino)-6-(((2-(trifluoromethyl)-1H-benzo[d]imidazol-4-yl)(1-(1-(trifluoromethyl)cyclopropyl)-1H-1,2,3-triazol-4-yl)methyl)amino)quinoline-3-carbonitrile]: in the assay on TNFα (setting [3]), the half-maximal effective concentration (EC50) was 1000 nM. Besides, the 50% inhibitory concentration (IC50) against Human Cot (setting [4]) came to 1820 nM.
For the molecule `COc1nccc2c([C@H](Nc3cc(Cl)c4ncc(C#N)c(NCC(C)(C)C)c4c3)c3cn(C(CF)CF)nn3)cccc12` [Example 933, (S)-8-chloro-6-(((1-(1,3-difluoropropan-2-yl)-1H-1,2,3-triazol-4-yl)(1-methoxylsoquinolin-5-yl)methyl)amino)-4-(neopentylamino)quinoline-3-carbonitrile], in the assay on TNFα (setting [5]), the EC50 was 247 nM. The IC50 on Human Cot (setting [6]) is 29 nM.
Turning to `Cn1ccc2c([C@H](Nc3cc(Cl)c4ncc(C#N)c(NCC(C)(C)C)c4c3)c3cn(C4(C(F)F)CC4)nn3)cccc21` [Example 736, (S)-8-chloro-6-(((1-(1-(difluoromethyl)cyclopropyl)-1H-1,2,3-triazol-4-yl)(1-methyl-1H-indol-4-yl)methyl)amino)-4-(neopentylamino)quinoline-3-carbonitrile], in the assay with TNFα (setting [1]), the concentration giving a half-maximal response (EC50) was 645 nM. The half-maximal inhibitory concentration (IC50) against Human Cot (setting [2]) turned out to be 117 nM.
The corresponding values for `CC(C)(CNc1c(C#N)cnc2c(Cl)cc(N[C@H](c3cn(C45CC(C4)C5)nn3)c3cccc4ncccc34)cc12)C(F)(F)F` [Example 799, (S)-6-(((1-(bicyclo[1.1.1]pentan-1-yl)-1H-1,2,3-triazol-4-yl)(quinolin-5-yl)methyl)amino)-8-chloro-4-((3,3,3-trifluoro-2,2-dimethylpropyl)amino)quinoline-3-carbonitrile] are 46 nM and 4 nM.
As to `CC1(C)COCC[C@H]1Nc1c(C#N)cnc2c(C#N)cc(N[C@H](c3cn(C4(C(F)(F)F)CC4)nn3)c3cccc4ncsc34)cc12` [Example 474, 6-(((S)-benzo[d]thiazol-7-yl(1-(1-(trifluoromethyl)cyclopropyl)-1H-1,2,3-triazol-4-yl)methyl)amino)-4-(((R)-3,3-dimethyltetrahydro-2H-pyran-4-yl)amino)quinoline-3,8-dicarbonitrile], the EC50 with TNFα (setting [1]) was found to be 26 nM. The same molecule came in with a half-inhibitory concentration (IC50) at Human Cot (setting [2]) of 2 nM.
With `COc1c([C@@H](Nc2cc(C#N)c3ncc(C#N)c(NCC(C)(C)C)c3c2)c2ccc(F)nc2C)nnn1C12CC(C1)C2` [Example 868, (S)-6-(((1-(bicyclo[1.1,1]pentan-1-yl)-5-methoxy-1H-1,2,3-triazol-4-yl)(6-fluoro-2-methylpyridin-3-yl)methyl)amino)-4-(neopentylamino)quinoline-3,8-dicarbonitrile], the concentration giving a half-maximal response (EC50) in the assay on TNFα (setting [3]) was 70 nM. At Human Cot (setting [4]), this molecule showed an IC50 of 2 nM.
As to `CC(C)(C)CNc1c(C#N)cnc2c(C#N)cc(N[C@H](c3cn(C4(C(F)F)CC4)nn3)c3cccc4c(=O)n(CC(F)F)ccc34)cc12` [Example 870, (S)-6-(((2-(2,2-difluoroethyl)-1-oxo-1,2-dihydroisoquinolin-5-yl)(1-(1-(difluoromethyl)cyclopropyl)-1H-1,2,3-triazol-4-yl)methyl)amino)-4-(neopentylamino)quinoline-3,8-dicarbonitrile], the EC50 in the assay with TNFα (setting [3]) worked out at 169 nM. The molecule further showed a concentration for half-maximal inhibition (IC50) on Human Cot (setting [4]) of 2 nM.
Take `CC(C)(C)N1CCC(n2cc([C@@H](Nc3cc(Cl)c4ncc(C#N)c(Nc5ccc(F)c(Cl)c5)c4c3)c3cncs3)nn2)CC1` [Example 370]: the EC50 in the assay on TNFα (setting [7]) stood at 232 nM. Also, at Human Cot (setting [8]), the IC50 came out at 8 nM.
Consider `CC[C@@H](Nc1c(C#N)cnc2c(Cl)cc(N[C@H](c3c[nH]nn3)c3cccnc3C)cc12)c1ccccc1` [Example 220, 8-chloro-6-(((S)-(2-methylpyridin-3-yl)(1H-1,2,3-triazol-4-yl)methyl)amino)-4-(((R)-1-phenylpropyl)amino)quinoline-3-carbonitrile], for which the EC50 in the assay with TNFα (setting [1]) amounted to 348 nM. For the same molecule, at Human Cot (setting [2]), the IC50 was 4 nM.
The corresponding values for `CC(C)(C)N1CCC(n2cc([C@@H](Nc3cc(Cl)c4ncc(C#N)c(Nc5ccc(F)c(Cl)c5)c4c3)C3=CCOCC3)nn2)CC1` [Example 264, (S)-6-(((1-(1-(tert-butyl)piperidin-4-yl)-1H-1,2,3-triazol-4-yl)(3,6-dihydro-2H-pyran-4-yl)methyl)amino)-8-chloro-4-((3-chloro-4-fluorophenyl)-amino)quinoline-3-carbonitrile] are 70 nM and 2 nM.
On to `CC(C)(C)CNc1c(C#N)cnc2c(Cl)cc(N[C@H](c3cn(C4(C(F)(F)F)CC4)nn3)c3cccc4c(=O)n(CC(F)F)ccc34)cc12` [Example 770, (S)-8-chloro-6-(((2-(2,2-difluoroethyl)-1-oxo-1,2-dihydroisoquinolin-5-yl)(1-(1-(trifluoromethyl)cyclopropyl)-1H-1,2,3-triazol-4-yl)methyl)amino)-4-(neopentylamino)quinoline-3-carbonitrile], for which the 50% effective concentration (EC50) with TNFα (setting [1]) amounted to 108 nM. Besides, on Human Cot (setting [2]), the midpoint of inhibition, the IC50, lay at 4 nM.
`Cc1nc(F)ccc1[C@H](Nc1cc(Cl)c2ncc(C#N)c(N[C@@H](c3ccccc3)C3CC3)c2c1)c1cn(C2(C(F)(F)F)CC2)nn1` [Example 611, 8-chloro-4-(((R)-cyclopropyl(phenyl)methyl)-amino)-6-(((S)-(6-fluoro-2-methylpyridin-3-yl)(1-(1-(trifluoromethyl)cyclopropyl)-1H-1,2,3-triazol-4-yl)methyl)amino)quinoline-3-carbonitrile]: the EC50 in the assay with TNFα (setting [1]) is 229 nM. In addition, 20 nM corresponded to half-maximal inhibition on Human Cot (setting [2]) (IC50).
For `Cc1nc(F)ccc1[C@H](Nc1cc(Cl)c2ncc(C#N)c(NCC(C)(C)C(F)(F)F)c2c1)c1nnn(C23CC(C2)C3)c1F` [Example 956, (S)-6-(((1-(bicyclo[1.1.1]pentan-1-yl)-5-fluoro-1H-1,2,3-triazol-4-yl)(6-fluoro-2-methylpyridin-3-yl)methyl)amino)-8-chloro-4-((3,3,3-trifluoro-2,2-dimethylpropyl)amino)quinoline-3-carbonitrile], in the assay on TNFα (setting [3]), the EC50 was 44 nM. On Human Cot (setting [4]), this molecule gave an IC50 of 7 nM.
In the case of `Cc1nc(F)ccc1[C@H](Nc1cc(Cl)c2ncc(C#N)c(NCC(C)(C)C)c2c1)c1cn(C2(C)COC2)nn1` [Example 759, (S)-8-chloro-6-(((6-fluoro-2-methylpyridin-3-yl)(1-(3-methyloxetan-3-yl)-1H-1,2,3-triazol-4-yl)methyl)amino)-4-(neopentylamino)quinoline-3-carbonitrile], the EC50 in the assay on TNFα (setting [1]) turned out to be 42 nM. The IC50 against Human Cot (setting [2]) was 2 nM.
Regarding `Cn1cnc2cccc([C@H](Nc3cc(Cl)c4ncc(C#N)c(NCC(C)(C)C)c4c3)c3cn(C4CC4)nn3)c21` [Example 459, (S)-8-chloro-6-(((1-cyclopropyl-1H-1,2,3-triazol-4-yl)(1-methyl-1H-benzo[d]imidazol-7-yl)methyl)amino)-4-(neopentylamino)quinoline-3-carbonitrile], the concentration for a half-maximal effect (EC50) with TNFα (setting [1]) came to 50 nM. On Human Cot (setting [2]), this molecule registered an IC50 of 3 nM.
For the molecule `Cc1nc(F)ccc1[C@H](Nc1cc(Cl)c2ncc(C#N)c(NCC(C)(C)C)c2c1)c1cn([C@@H](C)CF)nn1` [Example 546, 8-chloro-6-(((S)-(6-fluoro-2-methylpyridin-3-yl)(1-((S)-1-fluoropropan-2-yl)-1H-1,2,3-triazol-4-yl)methyl)amino)-4-(neopentylamino)quinoline-3-carbonitrile], the 50% effective concentration (EC50) in the assay with TNFα (setting [1]) amounted to 42 nM. The molecule also gave a half-inhibitory concentration (IC50) at Human Cot (setting [2]) of 2 nM.
Take `[2H][C@](Nc1cc(Cl)c2ncc(C#N)c(N[C@H](CC)c3ccccc3)c2c1)(c1ccc(F)nc1)c1c[nH]nn1` [Example 134, 8-chloro-6-(((S)-(6-fluoropyridin-3-yl)(1H-1,2,3-triazol-4-yl)methyl-d)amino)-4-(((R)-1-phenylpropyl)amino)quinoline-3-carbonitrile]: the concentration giving a half-maximal response (EC50) with TNFα (setting [1]) turned out to be 197 nM. At Human Cot (setting [2]), this molecule showed a concentration for half-maximal inhibition (IC50) of 6 nM.
On to `N#Cc1cnc2c(Cl)cc(N[C@@H](c3cscn3)c3cn(CCN)nn3)cc2c1Nc1ccc(F)c(Cl)c1` [Example 359, (S)-6-(((1-(2-arninoethyl)-1H-1,2,3-triazol-4-yl)(thiazol-4-yl)methyl)-amino)-8-chloro-4-((3-chloro-4-fluorophenyl)amino)quinoline-3-carbonitrile], for which the EC50 in the assay on TNFα (setting [7]) came to 729 nM. Further, on Human Cot (setting [8]), the half-inhibitory concentration (IC50) came out at 3 nM.
Turning to `COc1nccc2c([C@H](Nc3cc(C#N)c4ncc(C#N)c(NCC(C)(C)C)c4c3)c3cn(C45CC(C4)C5)nn3)cccc12` [Example 807, (S)-6-(((1-(bicyclo[1.1.1]pentan-1-yl)-1H-1,2,3-triazol-4-yl)(1-methoxylsoquinolin-5-yl)methyl)amino)-4-(neopentylamino)quinoline-3,8-dicarbonitrile], the EC50 with TNFα (setting [5]) is 31 nM. Also, the IC50 at Human Cot (setting [6]) stood at 3 nM.
